Data set [1] concerns cells. In words: Ability of hexapeptide conjugated to fluorescein to enter cells (immunocytochemistry). Format: cell-based. The settings on record: immunocytochemistry examination. The source says:
The test results are positive and confirms the previous data.

Data set [2] in a line: Cytotoxicity by LDH release, summary over the cell lines. Format: cell-based. The settings on record: human. In general terms: LDH leaks from cells whose membrane has failed.
Data set [3] deals with Jurkat cells. Put plainly: Jurkat cell penetration, immunofluorescence. The settings on record: 92 μM, 3 h. The format is cell-based, human. The method, then:
Jurkat cells (ATTC, UK) were seeded at density of 150000 cells/well in RPMI media supplemented with 1% Penstrep and 10% FBS in a humidified atmosphere containing 5% CO2 at 37°. The next day, the cells were incubated with 92 μM AVCGTG (SEQ ID NO. 1)-FITC for 3 h in multiwell 24. Subsequently, a cytospin was used to smear cells onto slides. The smears were fixed with 4% paraformaldehyde/PBS for 10 min and rinsed twice with 1×PBS containing 0.1% Triton to remove traces of fixative. Cell samples without AVCGTG (SEQ ID NO. 1)-FITC were used for the background control. After blocking solution with 5% NGS (Normal Goat Serum, VECTOR) 1×PBS+0,1% Triton X-100, was added for 30 minutes. After removing the blocking solution, cells were incubated with primary antibody hexapeptide, diluted 1:200 in blocking solution, overnight at 4° C. The following day, after washing with lx PBS and 0.1% Triton X-100 for 10 minutes, secondary antibody (ALEXA FLUO 488A, SANTACRUZ) diluted 1:400 with 1×PBS and 0.1% Triton X-100 for 2 h was added. The excess of antibody was removed with 3 washes with 1×PBS.
Nuclei were stained with DAPI (1 μg/mL). The slides were mounted and stored in the dark at 4° C. and then observed by fluorescence microscope ZEISS HB050 by using the software Axion Vision Re1.4.8.

The subject of data set [4] is HUT-7 Hepatocarcinoma. In words: Cytotoxicity by LDH release (Cytotox 96). Format: cell-based, human. Also noted: LDH μelease: dose or concentration left out as unconfirmed. To be noted: % of total LDH; for LDH release: 1.5 μM, 24 hr or 48 hr. How it is done:
(§1) The leader peptide of 24 aa. […] The release of lactate dehydrogenase (LDH) was then measured quantitatively in the supernatant of the culture medium of the cells after 24 hr of incubation, using the Cytotox 96 non riadioactive cytotoxic assay kit in compliance with the technical indications provided by Promega. The experiments were performed in triplicate in an independent manner, using different preparations. (Table III)
(§2) After the incubation the amount of lactate dehydrogenase (LDH) released from cells into the supernatant was measured. This quantity was expressed as a percentage of the total LDH (released by cells in which cell lysis had been induced using a detergent). Approximately 3% of LDH was found in the culture medium of not treated cells.

Data set [5] deals with PaTu Ca pancreatic. In words: Cytotoxicity by LDH release (Cytotox 96). The format is cell-based, human. Also noted: LDH μelease: dose or concentration left out as unconfirmed. To be noted: % of total LDH; for LDH release: 1.5 μM, 24 hr or 48 hr. How it is done:
as §1, §2

The subject of data set [6] is MRC-5. Put plainly: Cytotoxicity by LDH release (Cytotox 96). To be noted: % of total LDH; for LDH release: 1.5 μM, 24 hr or 48 hr. The format is cell-based, human. Also noted: LDH μelease: dose or concentration left out as unconfirmed. How it is done:
as §1, §2

Data set [7] relates to tumor cells of human origin. In words: Immuno-histochemical assessment of internalization. The settings on record: text summary of Table II. The format is cell-based. How it is done:
Subsequently, a cytospin was used to obtain a smear of cells on slides. The cells were then placed in Zamboni solution (4% paraformaldehyde, 15% picric acid) for 60 min and then washed with a solution of 1×PBS and incubated for 5 min with 3% hydrogen peroxide to suppress the action of endogenous peroxidase. The immuno-coloring was performed using the Dako LSA+System HRP kit (DAKO, CA, USA). The incubation lasted 30 minutes with primary antibody anti-peptide leader of 24 aa (1:200), produced in rabbits. This phase was followed by sequential method that requires a 30-min incubation with biotinylated antibody and peroxidase-labeled streptavidin. To complete the reaction of differentiation, a substrate-chromogen solution was engaged. Cell smears were colored with hematoxylin.
(§3) A positive reaction is represented by a brownish coloration. A blue coloration indicates negativity.
The immunocytochemical analysis was performed using a polyclonal antibody able to recognize the amino acid sequence of the peptide leader of rMnSOD (7), ie of 24 aa. among which there are also those that form the hexapeptide.
After incubation with these molecules, the cells were washed and treated with the polyclonal antibody for three hours at rt, and then the cells were washed with a solution of PBS [17, 18]. In control cells (not treated and those treated with the antibody alone), the reaction is negative. […]

In data set [8] the test system is white blood cells. In words: White blood cell penetration, immunocytochemistry at light microscopy. The format is cell-based, human. The settings on record: healthy subject. The method, then: (§4) Lymphocytes were incubated for five hours in the presence of fluorescinated Hexapeptide 92 μM. A cytospin was used to smear cells onto slides. The smears were fixed in Zamboni solution (4% paraformaldehyde, 15% picric acid) for 60 minutes and then washed with 1×PBS and incubated for five minutes with 3% hydrogen peroxide to quench endogenous peroxidase activity. Immunostaining was performed using the DAKO LSA+System HRP kit. Rabbit anti-rMnSOD-Lp (1:200), was incubated on slides for 30 minutes, followed by incubation with the biotinylated secondary antibody for 30 minutes and peroxidase-labeled streptavidin for 30 minutes. To complete the reaction, a substrate-chromogen solution was used. The smears were counterstained with hematoxylin.

The test system of data set [9] is Human breast carcinoma MCF-7. In words: Cytotoxicity by LDH release (Cytotox 96). Format: cell-based. The settings on record: % of total LDH; for LDH release: 1.5 μM, 24 hr or 48 hr. How it is done: as §1, §2
Data set [10] relates to A-2780. In words: Cytotoxicity by LDH release (Cytotox 96). Format: cell-based, human. The settings on record: % of total LDH; for LDH release: 1.5 μM, 24 hr or 48 hr. How it is done: as §1, §2
Data set [11] has as its system Human Normal Lymphocytes. Put plainly: Lymphocyte penetration, immunocytochemistry / immunofluorescence. Format: cell-based. To be noted: 3 hour incubation. The method, then: Human Normal Lymphocytes cells were collected from healthy donors and purified using Ficoll Hystopaque density gradient centrifugation. The cells were cultured at a density of 1×10^6 cells/mL in RPMI media supplemented with 1% Penstrep and 10% FBS in a humidified atmosphere containing 5% CO2 at 37° C.
as §4, with “A” for “Lymphocytes were incubated for five hours in the presence of fluorescinated Hexapeptide 92 μM. A”

The test system of data set [12] is HUH-7. In words: Determination of platinum in culture medium and cell pellet by atomic absorption spectrophotometry. The format is cell-based, human. To be noted: 92 μM, 3 hours. How it is done:
(§5) The cells to be examined, after the incubation period, were harvested, washed twice in buffered solution (PBS) and treated with 50 μl of 35% HNO3 for 16 hours. The platinum (Pt) contained in the culture medium or in the cell pellet was determined by spectrophotometer at atomic absorption (Analyst 800, Perkin-Elmer, Norwalk, Conn.) using the following criteria: temperature of pretreatment, 1300° C., temperature of atomizing 2200° C. 0.015 μg of palladium were used (palladium has been used for the modification of the matrix) and 0.01 μg of Mg (NO3)2 as a modifier of the matrix. The determinations were performed using a graphite furnace equipped with the correction system of the Zeeman effect. For the determination of the metal, tubes of pyrolytic graphite coated with THGA were used (Perkin-Elmer) with an integrated “vov-type platform” system. A standard solution of platinum in 2.5% HNO3 (Spectrascan) was used as a mother solution for the construction of a calibration curve with three points of reference. Each determination was performed independently, in triplicate (11).

The subject of data set [13] is A2780. The data set is described as above. The format is cell-based, human. The settings on record: 92 μM, 3 hours. The method, then: as §5
Data set [14] deals with A375. Described as above. To be noted: 92 μM, 3 hours. Format: cell-based, human. How it is done: as §5
In data set [15] the test system is MCF-7. Described as above. Format: cell-based, human. To be noted: 92 μM, 3 hours. How it is done:
as §5

Data set [16] has as its system DU145. The description is as above. The settings on record: 92 μM, 3 hours. Format: cell-based, human. The method, then: as §5
The subject of data set [17] is DU 145 Renal Cell Carcinoma. Put plainly: Immuno-histochemical assessment of internalization (Ab anti-leader peptide 24 aa). Format: cell-based, human. The settings on record: 3 hours, 92 μM, positive = brownish coloration. How it is done:
(§6) Subsequently, a cytospin was used to obtain a smear of cells on slides. […] The immuno-coloring was performed using the Dako LSA+System HRP kit (DAKO, CA, USA). The incubation lasted 30 minutes with primary antibody anti-peptide leader of 24 aa (1:200), produced in rabbits. This phase was followed by sequential method that requires a 30-min incubation with biotinylated antibody and peroxidase-labeled streptavidin. To complete the reaction of differentiation, a substrate-chromogen solution was engaged. Cell smears were colored with hematoxylin.
as §3
(§7) After incubation with these molecules, the cells were washed and treated with the polyclonal antibody for three hours at rt, and then the cells were washed with a solution of PBS [17, 18].

Data set [18] relates to A-375 Melanoma. The data set is described as above. Format: cell-based, human. To be noted: 3 hours, 92 μM, positive = brownish coloration. The method, then:
as §6, §3, §7

Data set [19] deals with A-2780 Ovarian Ca. The data set is described as above. The format is cell-based, human. The settings on record: 3 hours, 92 μM, positive = brownish coloration. How it is done: as §6, §3, §7
In data set [20] the test system is HUH HCC. The description is as above. Format: cell-based, human. To be noted: 3 hours, 92 μM, positive = brownish coloration. How it is done:
as §6, §3, §7

For data set [21], the system named is Human breast cancer MCF-7. Described as above. The format is cell-based. The settings on record: 3 hours, 92 μM, positive = brownish coloration. The method, then: as §6, §3, §7

Residues, ends and D or L forms follow the SMILES beside them.

These results are taken from patent US20160256535A1, “HEXAPEPTIDE AND USES THEREOF” (priority 2013, published 2016).

One may read the mortality as the percentage killed.

Regarding ACTGVG [reference compound], in data set [1], the “penetration into the cells” value is listed as “does not penetrate into the cells”.

For `CC(C)[C@H](NC(=O)[C@H](C)N)C(=O)N[C@@H](CS)C(=O)NCC(=O)N[C@H](C(=O)NCC(=O)O)[C@@H](C)O` [Hexapeptide, AVCGTG] (H-AVCGTG-OH; N-terminus assumed), the mortality at 24 hr, 1.5 μM in data set [2] was 2 to 5%. In data set [3], the “penetration into Jurkat cells” value is “cytoplasmic internalization”. For the same molecule, the “LDH μelease” value in data set [4] is 4%; in data set [5] (not treated cells), 3%; in data set [6] (not treated cells), 2%; in [9] (1.5 mM), 5%; in data set [10] (1.5 mM), 5%. Also, in data set [7], the “reaction with polyclonal antibody against leader peptide of 24 aa” value is reported as “positive”. Moreover, the “penetration into white blood cells” value in data set [8] was “positive”. The internalization in lymphocytes result in [11] is recorded as “cytoplasmic internalization”.

On to `N.N.[Cl][Pt][Cl]` [CC, cisplatin, reference compound], for which the LDH release was found to be 32% in data set [4]; 25% in [5]; 37% in data set [6]; 48% in data set [9]; 36% in data set [10]. For the same molecule, the “Cellular uptake of Pt” value in data set [12] is 1.2%; in data set [13], 0.75%; in [14], 1.5%; in data set [15] it was 2.6%; in data set [16] it was 0.9%. The Pt cell pellet was 242.9 µg/L in data set [12]; 163 µg/L in [13]; 399.9 µg/L in data set [14]; 760 µg/L in data set [15]; 167.3 µg/L in [16].

In the case of Lp-CC (AVCGTG), the LDH release in [4] turned out to be 69%; in [5], 60%; in [6] it was 40%; in data set [9], 77%; in [10], 85%. Also, the “Cellular uptake of Pt” value amounted to 5.2% in [12]; 5.9% in [13]; 15.5% in data set [14]; 4.2% in data set [15]; 13.8% in data set [16]. The Pt cell pellet turned out to be 118.7 µg/L in data set [12]; 144 µg/L in [13]; 372 µg/L in [14]; 97 µg/L in data set [15]; 342.8 µg/L in data set [16]. The “internalization, reaction with Ab anti-peptide (24 aa)” value in data set [17], in [18], in data set [19], in [20] and in data set [21] was “positive” throughout.

B1: rMnSOd: recombinant form of LSA-type-MnSOD bearing the 24 amino acid leader peptide at the N-terminus (protein, UniProt P04179 1-222, looked up)
chain: MLSRAVCGTSRQLAPVLGYLGSRQKHSLPDLPYDYGALEPHINAQIMQLHHSKHHAAYVNNLNVTEEKYQEALAKGDVTAQIALQPALKFNGGGHINHSIFWTNLSPNGGGEPKGELLEAIKRDFGSFDKFKEKLTAASVGVQGSGWGWLGFNKERGHLQIAACPNQDPLQGTTGLIPLLGIDVWEHAYYLQYKNVRPDYLKAIWNVINWENVTERYMACKK
modifications: full-length
Take B1: the “reaction with polyclonal antibody against leader peptide of 24 aa” value in data set [7] is given as “positive”. Also, the “internalization, reaction with Ab anti-peptide (24 aa)” value in data set [17], in data set [18], in data set [19], in data set [20] and in [21] was “positive” in each case.
